In patent US20220096450A1, “Compounds and Methods for Treating or Preventing Heart Failure” (DREXEL UNIVERSITY, priority 2019, published 2022):

Target: SQOR (Homo sapiens, UniProt Q9Y6N5)
Assay: DCIP endpoint assay of SQOR activity
Assay type: biochemical
Details: Table 1, SAR of Set A/A′ and Set B; read-out: IC50
Method: The assay is based on the ability of reduced CoQ1, which is produced in the SQOR reaction, to nonenzymically reduce 2,6-dichloroindiphenol (DCIP) (Δεox-red=20 mM−1 cm−1 at 600 nm). Reaction mixtures containing SQOR, substrates (H2S, sulfite, CoQ1) and various concentrations of an inhibitor are incubated in 96-well plates for 60 s. The reactions are quenched by addition of formaldehyde and N-ethylmaleimide to denature SQOR and consume unreacted H2S, respectively, and are then incubated for 10 min prior to addition of DCIP. The absorbance at 600 nm is read 30 s after DCIP addition by using a BioTek Synergy 2 plate reader.

SQOR, sequence (Q9Y6N5 whole entry): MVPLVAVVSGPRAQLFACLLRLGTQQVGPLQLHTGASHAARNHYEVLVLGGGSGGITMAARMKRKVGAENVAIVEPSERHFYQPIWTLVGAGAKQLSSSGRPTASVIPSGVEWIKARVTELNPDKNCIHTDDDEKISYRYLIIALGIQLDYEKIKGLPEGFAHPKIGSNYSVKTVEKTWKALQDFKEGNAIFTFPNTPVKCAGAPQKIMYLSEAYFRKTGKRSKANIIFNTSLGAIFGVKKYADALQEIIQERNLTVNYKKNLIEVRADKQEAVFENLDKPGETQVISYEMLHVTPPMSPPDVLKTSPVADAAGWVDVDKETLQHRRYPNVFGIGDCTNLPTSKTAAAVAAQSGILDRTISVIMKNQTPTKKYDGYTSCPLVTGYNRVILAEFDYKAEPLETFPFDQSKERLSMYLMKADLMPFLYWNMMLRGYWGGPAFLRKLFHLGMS

For `N#Cc1c(-c2ccccc2)cc(-c2ccc(F)cc2)nc1N` [Compound 14, 2-amino-6-(4-fluorophenyl)-4-phenylnicotinonitrile], which IC50 is on record?
The IC50 was 600 nM.

Which IC50 does the source give for `COc1nc2c(c(-c3ccc(C(F)(F)F)cc3)c1C#N)Cc1ccccc1-2` [Compound 8, 2-methoxy-4-(4-(trifluoromethyl)phenyl)-5H-indeno[1,2-b]pyridine-3-carbonitrile] here?
The IC50 was 1100 nM.

How did the IC50 turn out when `COc1cccc(-c2c(C#N)c(OC)nc3c2Cc2ccccc2-3)c1` [Compound 10, 2-methoxy-4-(3-methoxyphenyl)-5H-indeno[1,2-b]pyridine-3-carbonitrile] was run?
The IC50 was 6100 nM.

How did the IC50 turn out when `COc1nc2c(c(-c3ccccc3Cl)c1C#N)Cc1ccccc1-2` [Compound 6, 4-(2-chlorophenyl)-2-methoxy-5H-indeno[1,2-b]pyridine-3-carbonitrile] was run?
The IC50 was 340 nM.

For `CCOC(=O)COc1nc(-c2ccccc2)cc(-c2ccccc2)c1C#N` [Compound 11, ethyl 2-((3-cyano-4,6-diphenylpyridin-2-yl)oxy)acetate], which IC50 is on record?
The IC50 was 30 nM.

`O=[N+]([O-])c1cc(Cl)c(-n2cccc2)cc1N1CCOCC1` [Compound 19, 4-(4-chloro-2-nitro-5-(1H-pyrrol-1-yl)phenyl)morpholine] was tested. Which IC50 did it give?
The IC50 was 440 nM.

Which IC50 does the source give for `Cc1ccc(-c2cc(-c3ccccc3)c(C#N)c(N)n2)cc1` [Compound 16, 2-amino-4-phenyl-6-(p-tolyl)nicotinonitrile] here?
The IC50 was 11000 nM.

How did the IC50 turn out when `CCOc1nc(-c2ccccc2)cc(-c2ccccc2)c1C#N` [Compound 13, 2-ethoxy-4,6-diphenylnicotinonitrile] was run?
The IC50 was 19 nM.

Which IC50 does the source give for `COc1nc2c(c(-c3ccccc3)c1C#N)Cc1ccccc1-2` [Compound 4, 2-methoxy-4-phenyl-5H-indeno[1,2-b]pyridine-3-carbonitrile] here?
Its IC50 is 21 nM.

How did the IC50 turn out when `Cc1ccc(C)c(-c2cc(-c3ccc4c(c3)OCO4)c(C#N)c(N)n2)c1` [Compound 15, 2-amino-4-(benzo[d][1,3]dioxol-5-yl)-6-(2,5-dimethylphenyl)nicotinonitrile] was run?
Its IC50 is 1100 nM.

`CCOc1nc2c(c(-c3ccc(OC)cc3)c1C#N)Cc1ccccc1-2` [Compound 5, 2-ethoxy-4-(4-methoxyphenyl)-5H-indeno[1,2-b]pyridine-3-carbonitrile] was tested. Which IC50 did it give?
Its IC50 is 260 nM.

`CCOc1nc(-c2ccccc2)cc(-c2ccc3c(c2)OCO3)c1C#N` [Compound 12, 4-(benzo[d][1,3]dioxol-5-yl)-2-ethoxy-6-phenylnicotinonitrile] was tested. Which IC50 did it give?
Its IC50 is 890 nM.

Which IC50 does the source give for `Cc1ccc(-c2cc(-c3ccc4c(c3)OCO4)c(C#N)c(N)n2)cc1C` [Compound 18, 2-amino-4-(benzo[d][1,3]dioxol-5-yl)-6-(3,4-dimethylphenyl)nicotinonitrile] here?
The IC50 was 14000 nM.

With `COc1nc2c(c(-c3ccc(SC)cc3)c1C#N)Cc1ccccc1-2` [Compound 7, 2-methoxy-4-(4-(methylthio)phenyl)-5H-indeno[1,2-b]pyridine-3-carbonitrile] as the compound, how does the IC50 read?
The IC50 was 880 nM.

Same assay, conditions: Table 2, SAR of Set C; read-out: IC50

`Cc1ccc(Sc2cc(N3CCOCC3)c(C)cc2[N+](=O)[O-])cc1` [Compound 3, 4-(2-methyl-4-nitro-5-(p-tolylthio)phenyl)morpholine] was tested. Which IC50 did it give?
Its IC50 is 8 nM.

Which IC50 does the source give for `COc1ccc(Sc2ccc(C)cc2)c([N+](=O)[O-])c1` [Compound 34, (4-methoxy-2-nitrophenyl)(p-tolyl)sulfane] here?
The IC50 was 4900 nM.

How did the IC50 turn out when `Cc1cc([N+](=O)[O-])c(S(=O)(=O)c2ccccc2)cc1C(=O)c1ccccc1` [Compound 33, (2-methyl-4-nitro-5-(phenylsulfonyl)phenyl)(phenyl)methanone] was run?
The IC50 was 152 nM.

With `Cc1cc([N+](=O)[O-])c(Sc2ccc(Cl)cc2)cc1C1SCCS1` [Compound 32, 2-(5-((4-chlorophenyl)thio)-2-methyl-4-nitrophenyl)-1,3-dithiolane] as the compound, how does the IC50 read?
Its IC50 is 24 nM.

Same assay, conditions: Table 3; read-out: IC50

Which IC50 does the source give for `COc1nc(-c2ccccc2)cc(-c2ccc(O)cc2)c1C#N` [4-(4-Hydroxyphenyl)-2-methoxy-6-phenylpyridine-3-carbonitrile] here?
Its IC50 is 480 nM.

For `COc1nc(-c2ccccc2[N+](=O)[O-])cc(-c2ccc(F)cc2)c1C#N` [4-(4-Fluorophenyl)-2-methoxy-6-(2-nitrophenyl)pyridine-3-carbonitrile], which IC50 is on record?
Its IC50 is 7 nM.

Which IC50 does the source give for `COc1ccc(-c2cc(-c3ncccc3C)nc(OC)c2C#N)cc1` [2-Methoxy-4-(4-methoxyphenyl)-6-(3-methylpyridin-2-yl)pyridine-3-carbonitrile] here?
The IC50 was 670 nM.

With `COc1nc(-c2ccccn2)cc(-c2ccco2)c1C#N` [4-(Furan-2-yl)-2-methoxy-6-(pyridin-2-yl)pyridine-3-carbonitrile] as the compound, how does the IC50 read?
Its IC50 is 680 nM.

With `CCOc1nc(-c2ccccc2)nc(-c2ccccc2)c1C#N` [4-Ethoxy-2,6-diphenylpyrimidine-5-carbonitrile] as the compound, how does the IC50 read?
Its IC50 is 120 nM.

For `Cc1cccnc1-c1cc(-c2ccc(F)cc2)c(C#N)c(OCc2cccnc2)n1` [2-((Pyridin-3-yl)methoxy)-4-(4-fluorophenyl)-6-(3-methylpyridin-2-yl)pyridine-3-carbonitrile], which IC50 is on record?
The IC50 was 40 nM.

Which IC50 does the source give for `COC(=O)N1CCN(CCOc2nc(-c3ncccc3C)cc(-c3ccc(F)cc3)c2C#N)CC1` [Methyl 4-(2-(3-cyano-4-(4-fluorophenyl)-6-(3-methylpyridin-2-yl)pyridin-2-yloxy)ethyl)piperazine-1-carboxylate] here?
Its IC50 is 540 nM.

With `N#Cc1c(-c2ccc(F)cc2)cc(-c2ccccn2)nc1OC[C@@H]1CCC(=O)N1` [2-((S)-5-(Methoxy)pyrrolidin-2-one)-4-(4-fluorophenyl)-6-(pyridin-2-yl)pyridine-3-carbonitrile] as the compound, how does the IC50 read?
The IC50 was 39000 nM.

For `Cc1cccnc1-c1cc(-c2ccc(F)cc2)c(C#N)c(OCc2ccncc2)n1` [2-((Pyridin-4-yl)methoxy)-4-(4-fluorophenyl)-6-(3-methylpyridin-2-yl)pyridine-3-carbonitrile], which IC50 is on record?
Its IC50 is 120 nM.

How did the IC50 turn out when `COC(=O)COCCOc1nc(-c2ncccc2C)cc(-c2ccc(F)cc2)c1C#N` [Methyl 2-(3-cyano-4-(4-fluorophenyl)-6-(3-methylpyridin-2-yl)pyridin-2-yloxy) 2-(2-methoxyethoxy) acetate] was run?
The IC50 was 96 nM.

Which IC50 does the source give for `N#Cc1c(-c2ccc(F)cc2)cc(-c2ccccn2)nc1OC[C@H]1CCC(=O)N1` [2-((R)-5-(Methoxy)pyrrolidin-2-one)-4-(4-fluorophenyl)-6-(pyridin-2-yl)pyridine-3-carbonitrile] here?
Its IC50 is 2700 nM.

With `COc1nc(-c2ccccc2)cc(-c2ccccc2)c1C` [2-Methoxy-3-methyl-4,6-diphenylpyridine] as the compound, how does the IC50 read?
Its IC50 is 440 nM.

With `COc1nc(-c2cccc(O)c2)cc(-c2ccc(F)cc2)c1C#N` [4-(4-fluorophenyl)-6-(3-hydroxyphenyl)-2-methoxypyridine-3-carbonitrile] as the compound, how does the IC50 read?
Its IC50 is 230 nM.

Which IC50 does the source give for `Cc1cccnc1-c1cc(-c2ccc(F)cc2)c(C#N)c(OCCN2CCN(C(=O)OC(C)(C)C)CC2)n1` [tert-Butyl 4-(2-(3-cyano-4-(4-fluorophenyl)-6-(3-methylpyridin-2-yl)pyridin-2-yloxy)ethyl)piperazine-1-carboxylate] here?
The IC50 was 43 nM.

For `COc1nc(-c2ccc(O)cc2)cc(-c2ccc(F)cc2)c1C#N` [4-(4-Fluorophenyl)-6-(4-hydroxyphenyl)-2-methoxypyridine-3-carbonitrile], which IC50 is on record?
The IC50 was 1000 nM.

`COc1nc(-c2ccccc2)cc(-c2cccc(N)c2)c1C#N` [4-(3-Aminophenyl)-2-methoxy-6-phenylpyridine-3-carbonitrile] was tested. Which IC50 did it give?
The IC50 was 1500 nM.

With `C=CCOc1nc(-c2ccccn2)cc(-c2ccc(F)cc2)c1C#N` [2-(Allyloxy)-4-(4-fluorophenyl)-6-(pyridin-2-yl)pyridine-3-carbonitrile] as the compound, how does the IC50 read?
The IC50 was 7.2 nM.

Which IC50 does the source give for `CN(C)CCCOc1nc(-c2ccccn2)cc(-c2ccc(F)cc2)c1C#N` [2-(3-(Dimethylamino)propoxy)-4-(4-fluorophenyl)-6-(pyridin-2-yl)pyridine-3-carbonitrile] here?
The IC50 was 2200 nM.

`Cc1cccnc1-c1cc(-c2ccc(F)cc2)c(C#N)c(OCc2ccccn2)n1` [2-((Pyridin-2-yl)methoxy)-4-(4-fluorophenyl)-6-(3-methylpyridin-2-yl)pyridine-3-carbonitrile] was tested. Which IC50 did it give?
Its IC50 is 32 nM.

For `COc1nc(-c2ccccc2N)cc(-c2ccc(F)cc2)c1C#N` [6-(2-Aminophenyl)-4-(4-fluorophenyl)-2-methoxypyridine-3-carbonitrile], which IC50 is on record?
Its IC50 is 230 nM.

Which IC50 does the source give for `COc1nc(-c2ccccc2)cc(-c2cccc(O)c2)c1C#N` [4-(3-Hydroxyphenyl)-2-methoxy-6-phenylpyridine-3-carbonitrile] here?
The IC50 was 1900 nM.

`Cc1cccnc1-c1cc(-c2ccc(F)cc2)c(C#N)c(OCCN2CCOCC2)n1` [2-(2-Morpholinoethoxy)-4-(4-fluorophenyl)-6-(3-methylpyridin-2-yl)pyridine-3-carbonitrile] was tested. Which IC50 did it give?
The IC50 was 270 nM.

For `Cc1cccnc1-c1cc(-c2ccc(F)cc2)c(C#N)c(=O)n1CCN1CCOCC1` [4-(4-fluorophenyl)-1,2-dihydro-6-(3-methylpyridin-2-yl)-1-(2-morpholinoethyl)-2-oxopyridine-3-carbonitrile], which IC50 is on record?
The IC50 was 14000 nM.

For `Cc1cccnc1-c1cc(-c2ccc(F)cc2)c(C#N)c(OCCN2CCN(C(=O)OC(C)C)CC2)n1` [Isopropyl 4-(2-(3-cyano-4-(4-fluorophenyl)-6-(3-methylpyridin-2-yl)pyridin-2-yloxy)ethyl)piperazine-1-carboxylate], which IC50 is on record?
The IC50 was 120 nM.

With `Cc1cccnc1-c1cc(-c2ccc(F)cc2)c(C#N)c(=O)n1Cc1cccnc1` [4-(4-fluorophenyl)-1,2-dihydro-6-(3-methylpyridin-2-yl)-2-oxo-1-((pyridin-3-yl)methyl)pyridine-3-carbonitrile] as the compound, how does the IC50 read?
Its IC50 is 10000 nM.

How did the IC50 turn out when `COc1nc(-c2ccccc2)cc(-c2ccc(N)cc2)c1C#N` [4-(4-Aminophenyl)-2-methoxy-6-phenylpyridine-3-carbonitrile] was run?
The IC50 was 92 nM.

Same assay, conditions: read-out: IC50 against SQOR

`CCOc1nc2c(c(-c3ccc(F)cc3)c1C#N)Cc1ccccc1-2` [Compound 1, 2-ethoxy-4-(4-fluorophenyl)-5H-indeno[1,2-b]pyridine-3-carbonitrile] was tested. Which IC50 did it give?
Its IC50 is 9.4 nM.
